Test results reported in patent publication EP0153845A2, “CRF analogs” (THE SALK INSTITUTE FOR BIOLOGICAL STUDIES, priority 1984, dated 1985).
Square brackets hold non-standard residues; d marks the D form. Peptide text beside a SMILES is read from it. * marks the point of attachment. hArg = N=C(N)NCCCC[C@H](N)C(=O)O; Nle = CCCC[C@H](N)C(=O)O; Orn = NCCC[C@H](N)C(=O)O; Bz = O=C(c1ccccc1)*

Tests used:
[1] = target: T1, cultured rat pituitary cells (Rattus norvegicus, UniProt P35353); experiment: Stimulation of ACTH and β-endorphin secretion by cultured rat pituitary cells (general procedure of Example III); type: cell-based; conditions: for secretion of ACTH and β-END-LI: general procedure of Example III
T1 sequence (P35353 24-415): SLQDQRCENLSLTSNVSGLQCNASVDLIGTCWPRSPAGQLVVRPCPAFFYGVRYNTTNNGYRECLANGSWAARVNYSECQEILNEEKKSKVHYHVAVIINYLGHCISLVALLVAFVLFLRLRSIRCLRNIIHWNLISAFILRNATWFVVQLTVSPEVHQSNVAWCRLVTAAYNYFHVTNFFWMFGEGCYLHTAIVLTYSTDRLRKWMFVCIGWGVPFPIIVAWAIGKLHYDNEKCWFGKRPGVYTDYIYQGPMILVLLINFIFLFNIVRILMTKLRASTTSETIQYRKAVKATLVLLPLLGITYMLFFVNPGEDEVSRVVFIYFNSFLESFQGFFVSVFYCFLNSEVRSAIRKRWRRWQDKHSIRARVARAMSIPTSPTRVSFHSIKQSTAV
Procedure: The synthetic peptide AHC and oCRF were examined for their effects on the secretion of ACTH and B-endorphin in vitro and was also in vivo. The potency of synthetic oCRF to stimulate the secretion of ACTH and β-endorphin by cultured rat pituitary cells was measured using the procedure as generally set forth in Endocrinology, 91, 562 (1972). […] In.vivo testing is carried out using the general procedure set forth in C. Rivier et al., Science, 218, 377 (1982).

[2] = Lowering of blood pressure, in vivo testing by the general procedure of Example III

Row | Molecule | secretion of ACTH and β-END-LI [1] | lowering of blood pressure [2] | secretory response to maximal concentrations ([1]; maximal (1-5 nM) concentrations)
1 | CC[C@H](C)[C@H](NC(=O)[C@@H](NC(=O)[C@H](CC(=O)O)NC(=O)[C@H](CC(C)C)NC(=O)[C@H](CC(C)C)NC(=O)[C@H](CC(C)C)NC(=O)[C@H](CCCNC(=N)N)NC(=O)[C@H](CC(N)=O)NC(=O)[C@H](CC(N)=O)NC(=O)[C@H](C)NC(=O)[C@H](C)NC(=O)[C@H](CCC(N)=O)NC(=O)[C@H](CCC(=O)O)NC(=O)[C@H](CCCCN)NC(=O)[C@H](CCC(=O)O)NC(=O)[C@H](CCCCN)NC(=O)[C@H](CCC(=O)O)NC(=O)[C@H](CCC(N)=O)NC(=O)[C@H](CCCCN)NC(=O)[C@H](CCCNC(=N)N)NC(=O)[C@H](C)NC(=O)[C@H](CCC(=O)O)NC(=O)[C@@H](NC(=O)[C@H](CCSC)NC(=O)[C@H](CCCCN)NC(=O)[C@H](CCCNC(=N)N)NC(=O)[C@H](CC(C)C)NC(=O)[C@H](CC(C)C)NC(=O)[C@H](CCC(=O)O)NC(=O)[C@H](CC(C)C)NC(=O)[C@H](CO)NC(=O)[C@H](CC(C)C)NC(=O)[C@H](CC(=O)O)NC(=O)[C@@H](NC(=O)[C@H](CO)NC(=O)[C@@H](NC(=O)[C@@H]1CCCN1C(=O)[C@@H]1CCCN1C(=O)CNC(=O)[C@@H]1CCC(=O)N1)[C@@H](C)CC)[C@@H](C)CC)[C@@H](C)CC)[C@@H](C)CC)C(N)=O | stimulates | very significant lowering of blood pressure | 
2 | CCCC[C@H](NC(=O)[C@@H](NC(=O)[C@H](CC(C)C)NC(=O)[C@H](CC(=O)O)NC(=O)[C@H](CC(C)C)NC(=O)[C@H](CO)NC(=O)[C@@H](NC(=O)[C@@H]1CCCN1C(=O)[C@@H]1CCCN1C(=O)[C@H](CCC(=O)O)NC(=O)CNC(=O)c1ccccc1)[C@@H](C)CC)[C@@H](C)O)C(=O)N[C@@H](Cc1c[nH]cn1)C(=O)N[C@@H](CC(C)C)C(=O)N[C@@H](CC(C)C)C(=O)N[C@@H](CCCNC(=N)N)C(=O)N[C@@H](CCC(=O)O)C(=O)N[C@H](C(=O)N[C@@H](CC(C)C)C(=O)N[C@@H](CCC(=O)O)C(=O)N[C@@H](CCSC)C(=O)N[C@@H](C)C(=O)N[C@@H](CCCNC(=N)N)C(=O)N[C@@H](C)C(=O)N[C@@H](CCC(=O)O)C(=O)N[C@@H](CCC(N)=O)C(=O)N[C@@H](CC(C)C)C(=O)N[C@@H](C)C(=O)N[C@@H](CCC(=O)O)C(=O)N[C@@H](CCC(N)=O)C(=O)N[C@@H](C)C(=O)N[C@@H](Cc1c[nH]cn1)C(=O)N[C@@H](CO)C(=O)N[C@@H](CC(N)=O)C(=O)N[C@@H](CCCNC(=N)N)C(=O)N[C@@H](CCCNC(=N)N)C(=O)N[C@@H](CC(C)C)C(=O)N[C@@H](CCSC)C(=O)N[C@@H](CCC(=O)O)C(=O)N[C@H](C(=O)N[C@H](C(N)=O)[C@@H](C)CC)[C@@H](C)CC)C(C)C (Bz-GEPPISLDLT[Nle]HLLREVLEMARAEQLAEQAHSNRRLMEII-NH2) | stimulates | very significant lowering of blood pressure | 
3 | CC[C@H](C)[C@H](NC(=O)[C@@H]1CCCN1C(=O)[C@@H]1CCCN1)C(=O)N[C@@H](CO)C(=O)N[C@@H](CC(C)C)C(=O)N[C@@H](CC(=O)O)C(=O)N[C@@H](CC(C)C)C(=O)N[C@H](C(=O)N[C@@H](CC(C)C)C(=O)N[C@@H](Cc1c[nH]cn1)C(=O)N[C@@H](CC(C)C)C(=O)N[C@@H](CC(C)C)C(=O)N[C@@H](CCCNC(=N)N)C(=O)N[C@@H](CCC(=O)O)C(=O)N[C@@H](CCSC)C(=O)N[C@@H](CC(C)C)C(=O)N[C@@H](CCC(=O)O)C(=O)N[C@@H](CCSC)C(=O)N[C@@H](CCC(=O)O)C(=O)N[C@@H](CCCN)C(=O)N[C@@H](C)C(=O)N[C@@H](CCC(=O)O)C(=O)N[C@@H](CCC(N)=O)C(=O)N[C@@H](CCC(=O)O)C(=O)N[C@@H](C)C(=O)N[C@@H](CCC(=O)O)C(=O)N[C@@H](CCC(N)=O)C(=O)N[C@@H](C)C(=O)N[C@@H](C)C(=O)N[C@@H](CC(C)C)C(=O)N[C@@H](CC(N)=O)C(=O)N[C@@H](CCCNC(=N)N)C(=O)N[C@@H](CCCCNC(=N)N)C(=O)N[C@@H](CC(C)C)C(=O)N[C@@H](CC(C)C)C(=O)N[C@@H](CCC(=O)O)C(=O)N[C@@H](CCC(=O)O)C(=O)N[C@@H](C)C(N)=O)[C@@H](C)O (H-PPISLDLTLHLLREMLEME[Orn]AEQEAEQAALNR[hArg]LLEEA-NH2) | stimulates | very significant lowering of blood pressure | 
4 | CCCC[C@H](NC(=O)[C@H](CCC(=O)O)NC(=O)[C@H](CC(C)C)NC(=O)[C@H](CCCC)NC(=O)[C@H](CCC(=O)O)NC(=O)[C@H](CCCNC(=N)N)NC(=O)[C@H](CC(C)C)NC(=O)[C@H](CC(C)C)NC(=O)[C@H](Cc1c[nH]cn1)NC(=O)[C@H](Cc1ccccc1)NC(=O)[C@@H](NC(=O)[C@H](CC(C)C)NC(=O)[C@H](CC(=O)O)NC(=O)[C@H](CC(C)C)NC(=O)[C@H](CO)NC(=O)[C@@H](NC(=O)[C@@H]1CCCN1C(=O)[C@H]1CCCN1)[C@@H](C)CC)[C@@H](C)O)C(=O)N[C@@H](C)C(=O)N[C@@H](CCCCN)C(=O)N[C@@H](C)C(=O)N[C@@H](CCC(=O)O)C(=O)N[C@@H](CCC(N)=O)C(=O)N[C@@H](CCC(=O)O)C(=O)N[C@@H](C)C(=O)N[C@@H](CCC(=O)O)C(=O)N[C@@H](CCC(N)=O)C(=O)N[C@@H](C)C(=O)N[C@@H](C)C(=O)N[C@@H](CC(C)C)C(=O)N[C@@H](CC(N)=O)C(=O)N[C@@H](CCCNC(=N)N)C(=O)N[C@@H](CC(C)C)C(=O)N[C@@H](CC(C)C)C(=O)N[C@@H](CC(C)C)C(=O)N[C@@H](CCC(=O)O)C(=O)N[C@@H](CCC(=O)O)C(=O)N[C@@H](C)C(N)=O [[D-Pro^4, Nle^18,21]-AHC(4-41)] (H-[dP]PISLDLTFHLLRE[Nle]LE[Nle]AKAEQEAEQAALNRLLLEEA-NH2) |  | very significant lowering of blood pressure | 
5 | CCCC[C@H](NC(=O)[C@H](CCC(=O)O)NC(=O)[C@H](CC(C)C)NC(=O)[C@H](CCCC)NC(=O)[C@H](CCC(=O)O)NC(=O)[C@H](CCCNC(=N)N)NC(=O)[C@H](CC(C)C)NC(=O)[C@H](CC(C)C)NC(=O)[C@H](Cc1c[nH]cn1)NC(=O)[C@H](Cc1ccccc1)NC(=O)[C@@H](NC(=O)[C@H](CC(C)C)NC(=O)[C@H](CC(=O)O)NC(=O)[C@H](CC(C)C)NC(=O)[C@H](CO)NC(=O)[C@@H](NC(=O)[C@@H]1CCCN1C(=O)[C@H]1CCCN1C(=O)[C@H](N)Cc1ccc(O)cc1)[C@@H](C)CC)[C@@H](C)O)C(=O)N[C@@H](C)C(=O)N[C@@H](CCCCN)C(=O)N[C@@H](C)C(=O)N[C@@H](CCC(=O)O)C(=O)N[C@@H](CCC(N)=O)C(=O)N[C@@H](CCC(=O)O)C(=O)N[C@@H](C)C(=O)N[C@@H](CCC(=O)O)C(=O)N[C@@H](CCC(N)=O)C(=O)N[C@@H](C)C(=O)N[C@@H](C)C(=O)N[C@@H](CC(C)C)C(=O)N[C@@H](CC(N)=O)C(=O)N[C@@H](CCCNC(=N)N)C(=O)N[C@@H](CC(C)C)C(=O)N[C@@H](CC(C)C)C(=O)N[C@@H](CC(C)C)C(=O)N[C@@H](CCC(=O)O)C(=O)N[C@@H](CCC(=O)O)C(=O)N[C@@H](C)C(N)=O [[D-Tyr^3, D-Pro^4, Nle^18,21]-AHC(3-41)] (H-[dY][dP]PISLDLTFHLLRE[Nle]LE[Nle]AKAEQEAEQAALNRLLLEEA-NH2) |  | very significant lowering of blood pressure | 
6 | H-SQEPPISLDLTFHLLREMLEMAKAEQEAEQAALNRLLLEEA-NH2 [AHC] |  |  | at a plateau level
7 | H-SQEPPISLDLTFHLLREVLEMTRADQLAQQAHSNRRLLDIA-NH2 [[Arg^23,36]-oCRF] |  | very significant lowering of blood pressure | 
